The source of these data is patent US12622878B2, “Cationic lipid having cystine skeleton” (NOF CORPORATION, priority 2020, dated 2026).

Data set [1] in a line: Measurement of Liposomal pKa (TNS fluorescence) of LNP without nucleic acid. Type of data set: physicochemical. To be noted: cationic lipid:DOPC:Chol=52.5:7.5:40 + about 1.5 mol DMG-PEG2k, pH at which relative TNS fluorescence intensity was 50%. How it is done:
Lipid nano particles (LNP) without containing nucleic acid were used for the evaluation of Liposomal pKa.
A 10 mM ethanol solution of cationic lipid, a 5 mM ethanol solution of DOPC, and a 10 mM ethanol solution of Chol were mixed at desired ratio (cationic lipid:DOPC:Chol=52.5:7.5:40 (molar ratio)) in an Eppendorf tube to achieve the total lipid amount of 720 nmol. To the obtained mixture was further added DMG-PEG2k (2 mM ethanol solution) in an amount of about 1.5 mol with respect to the total amount 100 mol of cationic lipid, DOPC, and Chol, and then ethanol was added to prepare an ethanol solution of the lipid (total amount: 360 μL).
(§1) An acidic malic acid buffer (20 mM, pH 3.0) (1080 μL) containing NaCl at a final concentration of 30 mM and an ethanol solution (360 μL) of lipid were each weighed in a syringe. Using an ultra high-speed nanomedicament producing apparatus NanoAssmblr (manufactured by Precision NanoSystems), LNP was prepared under the conditions of addition rate of acidic buffer solution: 3 mL/min, addition rate of ethanol solution of lipid: 1 mL/min, and syringe holder temperature: 25° C., and collected in a 15 mL tube. MES buffer (pH 6.5) (3000 μL) was added to the 15 mL tube, the obtained mixture was transferred to Amicon Ultra 4, and ultrafiltration was performed under centrifugation conditions (25° C., 1000 g, 6 min) to concentrate the mixture to about 100 μL. The obtained concentrate was diluted with PBS to 4 mL, and the mixture was concentrated again under centrifugation conditions (25° C., 1000 g, 6 min), and this operation was performed twice. The obtained concentrate was diluted with PBS to a lipid concentration of 0.5 mM to give a dispersion containing LNP.
20 mM Citrate buffer, sodium phosphate buffer, and tris HCl buffer, each containing NaCl at a final concentration of 150 mM and adjusted to various pHs within the range of pH 3.0 to 10.0, were prepared. TNS (manufactured by Sigma) was diluted with ultrapure water to 0.6 mM. TNS solution (2 μL), dispersions (12 μL) containing LNP prepared in [Experimental Example 1], 1, and buffers adjusted to various pHs (186 μL) were added to a black 96 well plate. The plate was protected from light and shaken at 400 rpm for 10 min. The fluorescence intensity (excitation: 321 nm/emission: 447 nm) was measured using a plate reader (manufactured by TECAN). The relative fluorescence intensity was calculated as a percentage, with the maximum value of the fluorescence intensity in each LNP being 100% and the minimum value being 0%. Furthermore, the pH at which the relative fluorescence intensity was 50% was taken as Liposomal pKa.

The nature of data set [2]: Particle size, PdI and zeta potential of mRNA-encapsulating LNPs by dynamic light scattering. Type of data set: physicochemical. To be noted: FLuc mRNA-encapsulating LNP, cationic lipid:DOPC:Chol=55:5:40 + about 1 mol DMG-PEG2k; for PdI / particle size: dynamic light scattering; for zeta potential: physiological pH. The protocol: A 10 mM ethanol solution of cationic lipid, a 5 mM ethanol solution of DOPC, and a 10 mM ethanol solution of Chol were mixed at desired ratio (cationic lipid:DOPC:Chol=55:5:40 (molar ratio)) in an Eppendorf tube to achieve the total lipid amount of 720 nmol. To the obtained mixture was further added DMG-PEG2k (2 mM ethanol solution) in an amount of about 1 mol with respect to the total amount 100 mol of cationic lipid, DOPC, and Chol, and then ethanol was added to prepare an ethanol solution of the lipid (total amount: 360 μL).
An acidic buffer solution (total amount: 1080 μL) of nucleic acid was prepared by weighing 7.2 μg of mRNA solution (0.6 mg/mL) (CleanCap (registered trade mark) FLuc mRNA (TriLink)) in a 5 mL tube and adding acidic malate buffer (20 mM, pH 3.0) containing NaCl at a final concentration of 30 mM.
as §1, with “buffer solution of nucleic” for “malic”, “acid” for “acid buffer (20 mM, pH 3.0) (1080 μL) containing NaCl at a final concentration of 30 mM”, “solution” for “solution (360 μL)”, “solution of nucleic acid:” for “solution:”, “2” for “0.5”
The particle size, PdI (Polydispersity Index, Polydispersity), and zeta potential of the mRNA-encapsulating LNP prepared by the method of the above-mentioned 1 were measured by a dynamic light scattering method.

Data set [3] concerns BALB/c mouse. The data set is described as follows: In vivo gene expression (luciferase mRNA), organ luminescence by IVIS. To be noted: tail vein, 0.05 mg mRNA per kg, 4.5 hr after administration, liver and spleen, FIG. 2. How it is done:
(§2) LNP encapsulating mRNA (CleanCap (registered trade mark) FLuc mRNA (TriLink)) that expresses luciferase (cationic lipid:DOPC:Chol:DMG-PEG2k=55:5:40:1 (molar ratio)) was prepared by the method described in [Experimental Example 2], 1.
The prepared each mRNA-encapsulating LNP dispersion was administered from the tail vein of BALB/c mouse (male, 5-week-old). The dose of mRNA was set to 0.05 mg per 1 kg body weight of the mouse, and the dose of the mRNA-encapsulating LNP dispersion was set to 10 μL per 1 g body weight of the mouse. After 4.5 hr from the administration of the mRNA-encapsulating LNP dispersion, a PBS solution of D-luciferin potassium was administered into the abdominal cavity of the mouse. The dose of D-luciferin potassium was set to 3 mg per mouse, and the dose of the PBS solution of D-luciferin potassium was set to 200 μL per mouse. After 15 min from the administration of the PBS solution of D-luciferin potassium, the mouse was euthanized, and the liver, spleen, kidney, heart, and lung were isolated. The luminescence in each organ was quantified using an in vivo imaging system (IVIS) with an exposure of 10 sec. The amount of luminescence in each organ was quantified by image analysis using Live Imaging software attached to IVIS. The amount of luminescence (photons/sec) was calculated from the acquired image and used as an index of gene expression activity. […]

The test system of data set [4] is HeLa cells. The data set is described as follows: In vitro gene expression (luciferase mRNA) in HeLa cells. To be noted: FLuc mRNA-encapsulating LNP, 0.4 μg mRNA, FIG. 3. Type of data set: cell-based, human. How it is done:
as §2
HeLa cells, which are human cervical cancer cells, were seeded in a 3.5 cm dish at 5.0×10^4 cells/2 mL/Dish 24 hours before transfection. After 24 hours, the medium was exchanged with a culture medium (D-MEM) containing 0.1 mM D-luciferin. Prepared mRNA-encapsulating LNP was diluted with PBS such that the concentration of mRNA was 8 μg/mL. The diluted mRNA-encapsulating LNP solution (50 μL, mRNA: 0.4 μg) was added to the 3.5 cm dish and set in an incubator luminometer KronosDio. The luminescence intensity of luciferase was measured for 2 min every one hour. The cumulative luciferase luminescence intensity for 24 hr was calculated from the obtained time change of expression. For example, “1.0E+06” means “1.0×10^6”.

The subject of data set [5] is Jurkat cells. The data set is described as follows: In vitro gene expression (luciferase mRNA) in Jurkat cells. To be noted: FLuc mRNA-encapsulating LNP, 0.4 μg mRNA, FIG. 1. Type of data set: cell-based, human. How it is done: as §2
Jurkat cells, which are human leukemia T cells, were seeded in a 3.5 cm dish at 2.0×10^5 cells/1.8 mL/Dish 24 hours before transfection. After 24 hr, a medium (RPMI1640) (200 μL) supplemented with D-luciferin was added to the dish at final concentration of 0.1 mM. Each mRNA-encapsulating LNP dispersion (40 to 120 μL) (0.4 μg as mRNA) was added to the aforementioned dish, and the aforementioned dish was set in an incubator luminometer KronosDio. The luminescence intensity of luciferase was measured for 2 min every three hours. The cumulative luciferase luminescence intensity for 24 hr was calculated from the obtained time change of expression. For example, “5.0E+05” means “5.0×10^5”.

A word on the pKa: it is the pH at which an ionisable group is half protonated.

SMILES strings stand for the structures.

Consider `CCCCCCCC/C=C\CCCCCCCC(=O)Oc1ccc(CC(=O)OCCOC(=O)C(CSSCC(NC(=O)CN(C)CCC)C(=O)OCCOC(=O)Cc2ccc(OC(=O)CCCCCCC/C=C\CCCCCCCC)cc2)NC(=O)CN(C)CCC)cc1` (stereo not drawn) [Example 3], for which the pKa in data set [1] stood at 5.9. In addition, in data set [2], the PdI stood at 0.100, the particle size came to 111 nm and the zeta potential was −11.2 mV.

As to `CCCCCCCC/C=C\CCCCCCCC(=O)Oc1ccc(CC(=O)OCCOC(=O)C(CSSCC(NC(=O)CN(C)C)C(=O)OCCOC(=O)Cc2ccc(OC(=O)CCCCCCC/C=C\CCCCCCCC)cc2)NC(=O)CN(C)C)cc1` (stereo not drawn) [Example 1], the “gene expression activity (amount of luminescence in organ)” value in data set [3] was “superior gene expression activity in the liver and the spleen”. Also, the “gene expression activity (cumulative luciferase luminescence intensity for 24 hr)” value in data set [4] is listed as “superior gene expression activity”. Further, the pKa in data set [1] was determined as 6.6. In data set [2], the PdI is reported as 0.105, the particle size is 78 nm and the zeta potential amounted to 0.01 mV. In addition, in data set [5], the “gene expression activity (cumulative luciferase luminescence intensity for 24 hr)” value was “superior gene expression activity”.

For `CCCCCCCC/C=C\CCCCCCCC(=O)Oc1ccc(CC(=O)OCCOC(=O)C(CSSCC(NC(=O)CN(CC)CC)C(=O)OCCOC(=O)Cc2ccc(OC(=O)CCCCCCC/C=C\CCCCCCCC)cc2)NC(=O)CN(CC)CC)cc1` (stereo not drawn) [Example 4], in data set [1], the pKa stood at 6.3. Also, in data set [2], the PdI stood at 0.091, the particle size turned out to be 81 nm and the zeta potential is on record as −7.78 mV.

In the case of `CCCCCCCC/C=C\CCCCCCCC(=O)Oc1ccc(CC(=O)OCCOC(=O)C(CSSCC(NC(=O)CN2CCCCC2)C(=O)OCCOC(=O)Cc2ccc(OC(=O)CCCCCCC/C=C\CCCCCCCC)cc2)NC(=O)CN2CCCCC2)cc1` (stereo not drawn) [Example 7], the pKa in data set [1] amounted to 6. Besides, in data set [2], the PdI is 0.080, the particle size was 126 nm and the zeta potential is on record as −10.3 mV.

With `CCCCCCCC/C=C\CCCCCCCC(=O)Oc1ccc(CC(=O)OCCOC(=O)C(CSSCC(NC(=O)CN(CCC)CCC)C(=O)OCCOC(=O)Cc2ccc(OC(=O)CCCCCCC/C=C\CCCCCCCC)cc2)NC(=O)CN(CCC)CCC)cc1` (stereo not drawn) [Example 5], the pKa in data set [1] stood at 5.3. In data set [2], the PdI is 0.162, the particle size is listed as 112 nm and the zeta potential is −12.4 mV.

With `CCCCCCCC/C=C\CCCCCCCC(=O)Oc1ccc(CC(=O)OCCOC(=O)C(CSSCC(NC(=O)CN(C)CC)C(=O)OCCOC(=O)Cc2ccc(OC(=O)CCCCCCC/C=C\CCCCCCCC)cc2)NC(=O)CN(C)CC)cc1` (stereo not drawn) [Example 2], in data set [1], the pKa was 6.4. Moreover, in data set [2], the PdI is reported as 0.073, the particle size was 82 nm and the zeta potential is recorded as −5.02 mV.
